Marks after values point to notes of the source that are not given here.
Experiment: Solubility of active agents in surfactants (saturation, HPLC)
Format: physicochemical
Settings: 40° C., mean of three ± SD unless a (single) or b (duplicate); for Solubility Irinotecan HCl: irinotecan HCl in the surfactant; for Solubility Irinotecan base: irinotecan base in the surfactant; for Solubility Paclitaxel: paclitaxel in the surfactant
Method: In order for the surfactants to be useful as components of the delivery system, it is important to be able to dissolve biologically active agents in the surfactant or in the water. Table 3 illustrates that the surfactants are useful for dissolving three pharmaceutical compounds that may potentially be delivered using the invention. Solubility was determined by saturation of the surfactant with solid drug at 40° C. until saturation is achieved. Drug level was determined by reverse phase HPLC. Values given are the mean of three separate samples±standard deviation, unless denoted otherwise.

| Structure (SMILES) | Solubility Irinotecan HCl | Solubility Irinotecan base | Solubility Paclitaxel |
| --- | --- | --- | --- |
| CC(C)CCCC(C)CCCC(C)CCCC(C)CCNC(=O)NCCO (centres unmarked) [1-(3,7,11,15-tetramethyl-hexadecyl)-3-(2-hydroxyethyl)urea] | 4.36 ± 0.30 mg/g | 0.94 ± 0.02 mg/g | 5.67 ± 1.64 mg/g |
| CC(C)CCCC(C)CCCC(C)CCCC(C)CCOC(=O)C(O)CO (centres unmarked) [2,3-Dihydroxypropionic acid 3,7,11,15-tetramethyl-hexadecyl ester] | 4.33 ± 0.37 mg/g | 64.54 ± 4.65 mg/g | 4.83 ± 0.83 mg/g |
| CC(C)CCCC(C)CCCC(C)CCOC(=O)C(O)CO (centres unmarked) [2,3-Dihydroxypropionic acid 3,7,11-trimethyl-dodecyl ester] | 4.58^a mg/g | 3.92^b mg/g | 7.25^b mg/g |
| CC(C)CCCC(C)CCCC(C)CCCC(C)CCNC(N)=O (centres unmarked) [3,7,11,15-Tetramethyl-hexadecyl urea] | 1.63 ± 0.64 mg/g | 0.44 ± 0.11 mg/g | 7.85 ± 1.93 mg/g |
| CC(C)CCCC(C)CCCC(C)CCCC(C)CC(=O)OCC(O)CO (centres unmarked) [3,7,11,15-tetramethyl-hexadecanoic acid 1-glycerol ester] | – | 6.22^a mg/g | 6.66^a mg/g |

Continued, values first:

| Solubility Irinotecan HCl | Solubility Irinotecan base | Solubility Paclitaxel | Structure (SMILES) |
| --- | --- | --- | --- |
| 0.43 ± 0.20 mg/g | 0.35 ± 0.001 mg/g | 0.87 ± 0.18 mg/g | CC(C)CCCC(C)CCCC(C)CCCC(C)CCN(CCO)C(N)=O (centres unmarked) [1-(3,7,11,15-tetramethyl-hexadecyl)-1-(2-hydroxyethyl)urea] |
| 9.69 ± 0.74 mg/g | 35.66 ± 1.26 mg/g | 8.43 ± 0.23 mg/g | CCCCCCCCC=CCCCCCCCCOC(=O)C(O)CO (centres unmarked) [2,3-Dihydroxypropionic acid octadec-9-enyl ester] |
| 33.83 ± 5.98 mg/g | 3.76 ± 0.45 mg/g | 34.65 ± 2.34 mg/g | CC(C)CCCC(C)CCCC(C)CCNC(N)=O (centres unmarked) [3,7,11-Trimethyl-dodecyl urea] |
